According to the supplement of paper PMC10307832:

How the values were obtained:
Assay in all cases: relative viability (nuclei count vs DMSO), 5 days (fraction); higher = more cells survive
AZD6482 + Navitoclax = compound: Cc1cc([C@@H](C)Nc2ccccc2C(=O)O)c2nc(N3CCOCC3)cc(=O)n2c1 [AZD6482] + CC1(C)CCC(c2ccc(Cl)cc2)=C(CN2CCN(c3ccc(C(=O)NS(=O)(=O)c4ccc(N[C@H](CCN5CCOCC5)CSc5ccccc5)c(S(=O)(=O)C(F)(F)F)c4)cc3)CC2)C1 [Navitoclax] (partner 0.5 µM)
How it was run: (§1)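 One day after seeding in 1536-well plates, lung cancer cell lines were dosed by pin tool. Dosing was either single-drug or a fixed anchor-drug dose plus five library-drug doses (not always all listed) in √10 steps. After 5 days, nuclei were stained in one fix-and-stain step and counted on 4× images, and relative viability is the nuclei count of treated wells over that of vehicle wells, given as the median of duplicate plates.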

[1] = compound: COc1cc2nc(N3CCCN(C)CC3)nc(NC3CCN(Cc4ccccc4)CC3)c2cc1OC + CC(=O)Nc1cccc(-n2c(=O)n(C3CC3)c(=O)c3c(Nc4ccc(I)cc4F)n(C)c(=O)c(C)c32)c1 [Trametinib] (partner 0.02 µM)
How it was run: as §1

[2] = compound: COc1cc2nc(N3CCCN(C)CC3)nc(NC3CCN(Cc4ccccc4)CC3)c2cc1OC + N=C(N)NC(=N)NCCc1ccccc1 [Phenformin] (partner 250 µM)
How it was run: as §1

[3] = compound: COc1cc2nc(N3CCCN(C)CC3)nc(NC3CCN(Cc4ccccc4)CC3)c2cc1OC + Nc1ncn([C@H]2C[C@H](O)[C@@H](CO)O2)c(=O)n1 [Decitabine] (partner 2 µM)
How it was run: as §1

Cell Line	relative viability (AZD6482 + Navitoclax; first compound 0.08 µM)	relative viability (AZD6482 + Navitoclax; first compound 0.253 µM)	relative viability (AZD6482 + Navitoclax; first compound 0.8 µM)	relative viability (AZD6482 + Navitoclax; first compound 2.53 µM)	relative viability (AZD6482 + Navitoclax; first compound 8 µM)	relative viability ([1]; first compound 0.2 µM)	relative viability ([1]; first compound 0.6325 µM)	relative viability ([1]; first compound 2 µM)	relative viability ([1]; first compound 6.325 µM)	relative viability ([2]; first compound 0.2 µM)	relative viability ([2]; first compound 0.6325 µM)	relative viability ([2]; first compound 2 µM)	relative viability ([2]; first compound 6.325 µM)	relative viability ([3]; first compound 0.2 µM)	relative viability ([3]; first compound 0.6325 µM)	relative viability ([3]; first compound 2 µM)	relative viability ([3]; first compound 6.325 µM)
201T	1.22	1.17	1.19	1.12	1.17	0.701	0.702	0.71	0.675	0.464	0.414	0.462	0.442	0.889	0.812	0.859	0.799
HCC-44	0.758	0.964	0.965	0.874	0.459	1.04	1.13	1.1	1.08	0.252	0.376	0.339	0.27	1.01	0.855	0.936	0.944
NCI-H596	0.596	0.827	0.925	0.912	0.836	0.748	0.765	0.822	0.655	0.724	0.756	0.696	0.798	1.13	0.934	0.958	1.03
H3255	0.501	0.523	0.352	0.314	0.243	0.593	0.607	0.554	0.537	0.332	0.372	0.362	0.344	0.576	0.626	0.601	0.588
NCI-H647	0.949	–	0.929	0.555	0.806	0.514	0.495	0.527	0.238	0.586	0.727	0.673	0.366	0.421	0.356	0.394	0.28
NCI-H2023	0.891	0.999	0.803	0.615	0.621	0.598	0.577	0.501	0.116	0.424	0.414	0.498	0.272	0.226	0.218	0.25	0.114
NCI-H23	0.828	0.696	0.785	0.578	0.568	0.358	0.362	0.44	0.342	0.743	0.717	0.936	0.794	0.307	0.334	0.316	0.322
